Columns and labels:
Assay type in all cases: cell-based
[1] = tested on: JJN3 MM cells; assay: CD38 expression by flow cytometry on JJN3; conditions: treated 72 hours prior to expression measurement
Description: (§1) Both types of primary NK cell were cultured with the same amount of IL-2 ([…] as is standard for primary NK cell work. MM1S, H929 and JJN3 were treated with either SIA or Neura as described above and stained with an anti-CD38 antibody (BD Pharmingen-564498) for 30 mins on ice prior to being screened for expression using flow cytometry.
JJN3 MM cells were treated with 300 μM SIA and 10 nM ATRA (all-trans retinoic acid), or 300 μM SIA, 10 nM ATRA and DMSO individually for 72 hrs@37° C. After 72 hours, the cells were collected, washed with normal culture media once and then treated with Daratumumab at a concentration of 10 μg/ml for 30 mins at room temperature.
Some cells from all treatment conditions were not treated with Daratumumab and were instead screened for CD38 expression using an anti-CD38 antibody.

[2] = tested on: H929 target myeloma cell line; assay: NK cell mediated cytotoxicity co-culture against H929; conditions: expanded primary NK cells, co-cultures 4 hrs
Description: Co-cultures were carried out with either expanded (Miltenyi method) primary NK cells or IL-2 activated primary NK cells, both originally isolated from peripheral blood supplied by healthy donors and H929 and JJN3 target myeloma cell lines.
Propidium Iodide was used in flow cytometry to identify dead cells. MM cells were separated from NK cells by staining NK cells with CFSE cell tracking dye prior to initiating the co-culture.
% specific lysis (reported in all our figures) was calculated using the following formula:
Total cell death−basal cell death/100−basal cell death×100=%
Cell death here applies to target cells (e.g. JJN3 and H929)
After 30 mins treatment with Daratumumab, cells were co-cultured with primary expanded NK cells (Miltenyi method) for 4 hours at either 0.5:1 or 1:1 E:T (Effector:Target) ratios.

[3] = tested on: MM cell line MM1S; assay: CD38 expression by flow cytometry on MM1S; conditions: anti-CD38 staining, vs non-treated controls
Description: (§2) Desialylation: Target cells were cultured with 300 μM 3Fax-Peracetyl Neu5Ac (SIA, sialyltransferase inhibitor) for 72 hrs prior to use or treated with Neuraminidase (Neura, sialidase) for 45 mins@37° C. prior to use.
as §1

[4] = tested on: MM cell line H929; assay: CD38 expression by flow cytometry on H929; conditions: anti-CD38 staining, vs non-treated controls
Description: as §2, §1

Structure (SMILES) | CD38 expression [1] | expanded primary NK cell-mediated cytotoxicity (% specific lysis) [2] | CD38 expression (MFI) [3] | CD38 expression (MFI) [4]
CC1=C(/C=C/C(C)=C/C=C/C(C)=C/C(=O)O)C(C)(C)CCC1 [ATRA, all-trans retinoic acid] | strongly up-regulates CD38 expression |  |  | 
COC(=O)C1(OC(C)=O)OC(C(OC(C)=O)C(COC(C)=O)OC(C)=O)C(NC(C)=O)C(OC(C)=O)C1F (stereo not shown) [SIA, 3Fax-Peracetyl Neu5Ac] |  | enhanced expanded primary NK cell-mediated cytotoxicity | unmasks CD38 | unmasks CD38
